Consider 8 compounds from ChEMBL document CHEMBL5465560, “Selectivity Literature for EUbOPEN Chemogenomic Library” (2024).

The target in test [1] is Angiopoietin-1 receptor (Homo sapiens) (UniProt Q02763). As to the kind of experiment: Selectivity interaction (ProQinase) EUB0000171b TEK. The following applies: at 1 µM.
Test [2] deals with Vascular endothelial growth factor receptor 3 (Homo sapiens, UniProt P35916). As to the kind of experiment: Selectivity interaction (Ambit KINOMEscan and KiNATiv profiling in Jurkat cells) EUB0000090b FLT4. The test is classed as cell-based. To be noted: at 1 µM.
Vascular endothelial growth factor receptor 3, sequence (P35916 whole entry): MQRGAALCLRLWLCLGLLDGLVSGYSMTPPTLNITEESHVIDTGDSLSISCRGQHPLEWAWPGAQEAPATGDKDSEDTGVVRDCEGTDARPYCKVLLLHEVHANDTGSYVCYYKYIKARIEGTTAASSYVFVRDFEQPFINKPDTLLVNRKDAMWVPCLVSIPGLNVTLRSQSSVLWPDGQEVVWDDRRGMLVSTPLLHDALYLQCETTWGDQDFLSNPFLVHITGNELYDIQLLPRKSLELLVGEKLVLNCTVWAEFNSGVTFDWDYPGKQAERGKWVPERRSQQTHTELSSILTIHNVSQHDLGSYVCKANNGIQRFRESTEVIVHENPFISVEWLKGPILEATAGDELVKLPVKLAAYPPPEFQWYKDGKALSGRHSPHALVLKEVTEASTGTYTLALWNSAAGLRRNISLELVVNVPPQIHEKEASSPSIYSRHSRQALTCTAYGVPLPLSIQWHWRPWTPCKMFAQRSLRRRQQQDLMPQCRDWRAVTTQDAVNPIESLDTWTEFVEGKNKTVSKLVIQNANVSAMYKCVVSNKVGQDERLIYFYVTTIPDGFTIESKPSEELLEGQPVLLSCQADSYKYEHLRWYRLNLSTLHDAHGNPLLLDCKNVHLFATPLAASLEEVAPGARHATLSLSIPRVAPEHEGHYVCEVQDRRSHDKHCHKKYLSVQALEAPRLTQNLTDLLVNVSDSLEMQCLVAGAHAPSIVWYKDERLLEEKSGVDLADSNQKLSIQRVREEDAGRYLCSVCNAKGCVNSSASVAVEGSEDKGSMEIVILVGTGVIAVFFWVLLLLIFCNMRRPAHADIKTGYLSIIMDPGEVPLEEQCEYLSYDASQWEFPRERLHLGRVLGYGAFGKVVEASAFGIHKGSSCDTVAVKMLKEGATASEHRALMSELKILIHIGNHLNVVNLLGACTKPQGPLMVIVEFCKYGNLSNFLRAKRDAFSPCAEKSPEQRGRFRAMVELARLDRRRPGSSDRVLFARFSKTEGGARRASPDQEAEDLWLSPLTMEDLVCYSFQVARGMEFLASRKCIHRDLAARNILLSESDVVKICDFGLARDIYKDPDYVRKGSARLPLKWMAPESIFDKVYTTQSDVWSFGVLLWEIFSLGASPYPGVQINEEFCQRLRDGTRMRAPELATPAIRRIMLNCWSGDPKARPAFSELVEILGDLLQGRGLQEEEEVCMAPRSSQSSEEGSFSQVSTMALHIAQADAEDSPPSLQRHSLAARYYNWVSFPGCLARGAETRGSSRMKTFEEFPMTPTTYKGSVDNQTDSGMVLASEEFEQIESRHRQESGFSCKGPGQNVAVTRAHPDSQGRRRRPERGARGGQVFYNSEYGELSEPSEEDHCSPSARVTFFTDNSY
In test [3] the target is T1, Alpha-1A adrenergic receptor (Homo sapiens) (UniProt P35348).
T1 sequence (whole entry): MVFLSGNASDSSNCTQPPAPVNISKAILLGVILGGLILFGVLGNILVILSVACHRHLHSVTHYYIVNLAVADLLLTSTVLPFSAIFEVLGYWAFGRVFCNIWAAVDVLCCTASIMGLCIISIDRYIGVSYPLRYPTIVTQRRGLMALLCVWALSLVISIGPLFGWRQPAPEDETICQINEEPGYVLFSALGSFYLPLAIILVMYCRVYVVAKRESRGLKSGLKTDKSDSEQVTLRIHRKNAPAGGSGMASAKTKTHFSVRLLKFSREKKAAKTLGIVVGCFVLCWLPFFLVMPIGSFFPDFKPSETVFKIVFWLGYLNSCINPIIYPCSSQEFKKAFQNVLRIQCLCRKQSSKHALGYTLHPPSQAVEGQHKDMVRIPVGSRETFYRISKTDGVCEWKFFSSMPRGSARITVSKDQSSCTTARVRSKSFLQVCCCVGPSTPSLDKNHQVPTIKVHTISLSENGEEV
As to the kind of experiment: Selectivity interaction (GPCR panel (PDSP screen)) EUB0001079a ADRA1A. The following applies: at 10 µM.

The target of test [4] is T2, Peripheral plasma membrane protein CASK (Homo sapiens) (UniProt O14936).
T2 sequence (whole entry): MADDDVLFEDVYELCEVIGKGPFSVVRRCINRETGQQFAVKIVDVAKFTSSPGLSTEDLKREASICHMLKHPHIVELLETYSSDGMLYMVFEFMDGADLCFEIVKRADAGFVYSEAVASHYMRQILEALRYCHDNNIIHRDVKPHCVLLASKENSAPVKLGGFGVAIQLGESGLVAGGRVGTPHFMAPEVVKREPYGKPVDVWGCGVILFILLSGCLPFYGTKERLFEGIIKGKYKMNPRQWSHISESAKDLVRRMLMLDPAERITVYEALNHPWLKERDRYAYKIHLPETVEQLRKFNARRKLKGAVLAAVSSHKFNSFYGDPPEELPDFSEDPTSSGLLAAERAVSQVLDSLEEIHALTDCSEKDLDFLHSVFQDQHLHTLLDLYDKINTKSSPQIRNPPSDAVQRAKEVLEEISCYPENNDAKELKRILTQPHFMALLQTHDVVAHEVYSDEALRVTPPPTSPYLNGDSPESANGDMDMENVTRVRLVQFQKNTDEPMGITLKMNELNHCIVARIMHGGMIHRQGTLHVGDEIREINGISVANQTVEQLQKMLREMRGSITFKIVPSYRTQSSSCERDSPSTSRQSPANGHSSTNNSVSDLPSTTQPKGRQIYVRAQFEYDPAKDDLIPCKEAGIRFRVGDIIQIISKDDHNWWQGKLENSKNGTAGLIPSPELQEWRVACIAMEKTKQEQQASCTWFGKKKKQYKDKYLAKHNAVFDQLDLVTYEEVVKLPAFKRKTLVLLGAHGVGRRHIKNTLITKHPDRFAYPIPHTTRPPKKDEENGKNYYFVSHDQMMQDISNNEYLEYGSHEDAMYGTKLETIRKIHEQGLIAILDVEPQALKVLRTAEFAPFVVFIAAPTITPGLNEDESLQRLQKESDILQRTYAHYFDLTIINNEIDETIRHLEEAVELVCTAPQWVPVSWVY
As to the kind of experiment: Selectivity interaction (KinomeScan (DiscoverX)) EUB0001079a CASK. To be noted: at 1 µM.

The target in test [5] is Cyclin-dependent kinase 13 (Homo sapiens, UniProt Q14004). As to the kind of experiment: Selectivity interaction (KinomeScan (DiscoverX)) EUB0000092b CDK13. To be noted: at 10 µM.
Cyclin-dependent kinase 13, sequence (Q14004 whole entry, looked up): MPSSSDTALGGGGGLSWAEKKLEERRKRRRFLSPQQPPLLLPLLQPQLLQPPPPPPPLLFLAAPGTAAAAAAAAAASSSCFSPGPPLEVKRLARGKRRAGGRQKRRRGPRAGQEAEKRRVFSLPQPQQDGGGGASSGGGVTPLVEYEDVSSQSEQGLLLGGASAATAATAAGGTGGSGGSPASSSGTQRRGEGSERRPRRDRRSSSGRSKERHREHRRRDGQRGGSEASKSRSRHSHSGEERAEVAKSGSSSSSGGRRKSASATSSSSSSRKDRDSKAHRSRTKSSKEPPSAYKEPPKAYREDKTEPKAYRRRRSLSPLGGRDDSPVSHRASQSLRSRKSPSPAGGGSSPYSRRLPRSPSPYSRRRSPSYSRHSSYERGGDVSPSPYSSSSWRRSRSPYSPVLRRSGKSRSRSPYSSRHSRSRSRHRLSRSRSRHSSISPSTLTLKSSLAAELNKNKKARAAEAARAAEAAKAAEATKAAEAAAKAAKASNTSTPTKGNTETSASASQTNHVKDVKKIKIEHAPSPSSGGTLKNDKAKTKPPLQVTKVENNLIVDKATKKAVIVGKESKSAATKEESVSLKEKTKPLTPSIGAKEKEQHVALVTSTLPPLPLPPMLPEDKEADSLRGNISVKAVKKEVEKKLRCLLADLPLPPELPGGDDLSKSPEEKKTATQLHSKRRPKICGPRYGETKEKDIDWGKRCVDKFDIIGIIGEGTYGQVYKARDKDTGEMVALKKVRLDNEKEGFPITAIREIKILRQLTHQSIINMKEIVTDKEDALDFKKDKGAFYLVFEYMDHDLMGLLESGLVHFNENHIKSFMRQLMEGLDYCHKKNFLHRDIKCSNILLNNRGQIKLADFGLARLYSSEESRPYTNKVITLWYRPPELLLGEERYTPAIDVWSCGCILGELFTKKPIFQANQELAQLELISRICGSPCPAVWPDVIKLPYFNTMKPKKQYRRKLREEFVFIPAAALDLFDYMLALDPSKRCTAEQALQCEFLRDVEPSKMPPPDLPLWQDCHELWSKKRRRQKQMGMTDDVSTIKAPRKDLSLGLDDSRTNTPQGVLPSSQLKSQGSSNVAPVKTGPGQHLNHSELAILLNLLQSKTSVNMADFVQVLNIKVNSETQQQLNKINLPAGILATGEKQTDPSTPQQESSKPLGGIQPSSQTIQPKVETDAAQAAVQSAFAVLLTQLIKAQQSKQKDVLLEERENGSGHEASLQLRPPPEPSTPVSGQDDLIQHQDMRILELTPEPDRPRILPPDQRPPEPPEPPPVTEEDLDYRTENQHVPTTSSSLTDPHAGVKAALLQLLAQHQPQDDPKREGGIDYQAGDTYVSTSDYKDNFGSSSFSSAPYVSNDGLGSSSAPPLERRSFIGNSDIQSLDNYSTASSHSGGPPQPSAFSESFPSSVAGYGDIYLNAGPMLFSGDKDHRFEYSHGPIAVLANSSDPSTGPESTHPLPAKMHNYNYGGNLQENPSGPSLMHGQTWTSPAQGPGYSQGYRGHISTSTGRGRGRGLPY
In test [6] the target is Fibroblast growth factor receptor 4 (Homo sapiens, UniProt P22455). As to the kind of experiment: Selectivity interaction (KinomeScan (DiscoverX)) EUB0000695a FGFR4. The following applies: at 100 nM.
Fibroblast growth factor receptor 4, sequence (P22455 22-802 limits assumed): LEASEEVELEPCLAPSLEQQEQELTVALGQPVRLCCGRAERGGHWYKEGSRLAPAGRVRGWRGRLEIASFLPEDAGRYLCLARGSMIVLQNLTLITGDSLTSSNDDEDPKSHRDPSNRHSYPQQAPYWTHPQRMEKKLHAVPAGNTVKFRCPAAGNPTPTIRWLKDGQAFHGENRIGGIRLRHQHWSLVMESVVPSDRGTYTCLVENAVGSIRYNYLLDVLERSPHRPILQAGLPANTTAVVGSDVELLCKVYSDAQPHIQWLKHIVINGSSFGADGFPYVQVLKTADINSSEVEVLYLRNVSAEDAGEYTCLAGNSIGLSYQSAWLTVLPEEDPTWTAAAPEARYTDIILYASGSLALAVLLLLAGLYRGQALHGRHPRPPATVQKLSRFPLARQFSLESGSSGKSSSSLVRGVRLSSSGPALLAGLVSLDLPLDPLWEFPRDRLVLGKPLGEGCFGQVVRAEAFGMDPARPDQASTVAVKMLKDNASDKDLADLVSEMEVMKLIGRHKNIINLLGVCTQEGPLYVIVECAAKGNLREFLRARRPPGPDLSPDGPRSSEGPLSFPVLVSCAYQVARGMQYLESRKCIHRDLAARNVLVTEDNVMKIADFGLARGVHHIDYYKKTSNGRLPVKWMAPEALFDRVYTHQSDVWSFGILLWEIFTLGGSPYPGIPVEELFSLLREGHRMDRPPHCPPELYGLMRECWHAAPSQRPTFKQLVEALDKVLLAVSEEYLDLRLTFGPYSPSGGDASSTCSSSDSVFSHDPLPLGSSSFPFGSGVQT
For test [7], the target named is Glutamate receptor ionotropic, kainate 1 (Homo sapiens) (UniProt P39086). As to the kind of experiment: Selectivity interaction (Eurofins CEREP Diversity Profile (receptors and ion channels)) EUB0000279b GRIK1. To be noted: at 10 µM.
Test [8] deals with T3, Cytoplasmic tyrosine-protein kinase BMX (Homo sapiens) (UniProt P51813).
T3 sequence (whole entry): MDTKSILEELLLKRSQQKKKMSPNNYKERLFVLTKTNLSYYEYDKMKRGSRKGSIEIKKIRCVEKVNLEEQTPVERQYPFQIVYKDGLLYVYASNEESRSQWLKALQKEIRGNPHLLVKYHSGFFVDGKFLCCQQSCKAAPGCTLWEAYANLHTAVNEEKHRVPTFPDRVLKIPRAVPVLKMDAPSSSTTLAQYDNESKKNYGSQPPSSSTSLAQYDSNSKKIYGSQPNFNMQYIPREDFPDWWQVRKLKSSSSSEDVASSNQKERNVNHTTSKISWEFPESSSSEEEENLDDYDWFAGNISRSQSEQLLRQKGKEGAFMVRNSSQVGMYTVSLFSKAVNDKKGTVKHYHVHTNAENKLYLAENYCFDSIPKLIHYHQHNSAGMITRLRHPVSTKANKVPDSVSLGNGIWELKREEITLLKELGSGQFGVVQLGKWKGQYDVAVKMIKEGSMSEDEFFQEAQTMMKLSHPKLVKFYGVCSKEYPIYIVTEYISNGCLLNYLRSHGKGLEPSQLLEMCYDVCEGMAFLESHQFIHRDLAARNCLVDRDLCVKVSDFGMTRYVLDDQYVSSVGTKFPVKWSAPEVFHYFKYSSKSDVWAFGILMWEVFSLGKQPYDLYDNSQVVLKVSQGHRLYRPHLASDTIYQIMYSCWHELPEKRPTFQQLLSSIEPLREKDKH
As to the kind of experiment: Selectivity interaction (Kinase panel (Z-LYTE Assay)) EUB0001632a BMX. To be noted: at 10 µM.

The target in test [9] is Ephrin type-A receptor 7 (Homo sapiens) (UniProt Q15375). As to the kind of experiment: Selectivity interaction (KinomeScan (DiscoverX)) EUB0000229b EPHA7. To be noted: at 10 µM.
Ephrin type-A receptor 7 (Homo sapiens), sequence (Q15375 28-998 limits assumed): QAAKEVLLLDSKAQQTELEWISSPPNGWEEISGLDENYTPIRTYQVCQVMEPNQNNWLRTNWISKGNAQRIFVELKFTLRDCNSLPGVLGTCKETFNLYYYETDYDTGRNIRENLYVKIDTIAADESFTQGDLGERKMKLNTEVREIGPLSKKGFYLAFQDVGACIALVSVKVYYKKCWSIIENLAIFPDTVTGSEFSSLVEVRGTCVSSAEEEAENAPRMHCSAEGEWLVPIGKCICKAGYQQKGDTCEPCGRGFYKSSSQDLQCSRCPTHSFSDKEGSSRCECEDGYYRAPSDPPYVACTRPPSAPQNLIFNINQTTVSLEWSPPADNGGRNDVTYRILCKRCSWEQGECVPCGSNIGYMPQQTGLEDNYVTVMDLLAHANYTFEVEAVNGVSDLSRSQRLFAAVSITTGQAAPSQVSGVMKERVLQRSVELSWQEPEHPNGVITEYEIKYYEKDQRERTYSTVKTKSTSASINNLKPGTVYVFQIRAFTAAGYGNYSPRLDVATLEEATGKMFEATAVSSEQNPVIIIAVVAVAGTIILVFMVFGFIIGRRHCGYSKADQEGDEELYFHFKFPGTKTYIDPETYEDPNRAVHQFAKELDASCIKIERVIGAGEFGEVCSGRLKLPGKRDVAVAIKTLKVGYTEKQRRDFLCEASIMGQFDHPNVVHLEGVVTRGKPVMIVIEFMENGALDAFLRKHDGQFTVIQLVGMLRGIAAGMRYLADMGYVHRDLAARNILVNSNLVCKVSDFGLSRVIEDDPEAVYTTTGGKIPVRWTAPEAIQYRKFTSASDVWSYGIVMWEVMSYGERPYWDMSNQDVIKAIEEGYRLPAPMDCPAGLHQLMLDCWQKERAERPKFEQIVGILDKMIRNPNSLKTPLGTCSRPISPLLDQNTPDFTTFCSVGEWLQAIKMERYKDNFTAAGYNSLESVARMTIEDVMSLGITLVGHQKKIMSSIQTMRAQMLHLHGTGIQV
In test [10] the target is Homeodomain-interacting protein kinase 1 (Homo sapiens, UniProt Q86Z02). As to the kind of experiment: Selectivity interaction (KinomeScan (DiscoverX)) EUB0000229b HIPK1. The following applies: at 10 µM.

On to `C=CC(=O)Nc1cccc(C(=O)Nc2ccc(Nc3cc(-c4[nH]c(SC)nc4C)ccn3)cc2)c1`, for which the % of control in [1] is 95%.
For the compound `CN(C)C/C=C/C(=O)Nc1ccc(C(=O)N2CCCC(Nc3ncc(Cl)c(-c4c[nH]c5ccccc45)n3)C2)cc1` (stereo not given), the % of control in test [2] came to 70%.
Regarding `Nc1cnc(N2CCc3cc(S(=O)(=O)Nc4c(F)cc(Cl)cc4F)cc(N4CCCC4=O)c32)nc1` [TP-020n], the % of inhibition in test [3] was -15.7%. Besides, the % of control in test [4] was 94%.
Take `CCC(=O)N1CCN(c2ccc(-n3c(=O)ccc4cnc5ccc(-c6cnc7ccccc7c6)cc5c43)cc2C(F)(F)F)CC1`: the % of control in [5] was found to be 80%.
`Cc1cc(F)c(C(=O)Nc2cccc(-c3nncn3C(C)C)n2)cc1-n1cnc(C2CC2)c1` came in with a % of control in test [6] of 100%.
In test [7], `CC(=O)c1cc(-c2ccccc2OCC2CC2)c2ncccn12` had a % of control of 117%.
As to `Cn1cc(-n2cnc3c(NCc4nc5cc(Cl)c(Cl)cc5[nH]4)nc(N4CCOCC4)nc32)cn1`, the % of control in test [8] was 2.67%.
As for `COc1cc(N(C)c2ccnc3ccc(C(F)(F)F)cc23)cc(OC)c1OC`, the % binding in [9] amounted to 99%; in test [10], 77%.
